{"source": "ChEMBL document CHEMBL1148793", "about": "“Influence of conformation on GRIND-based three-dimensional quantitative structure-activity relationship (3D-QSAR)” (J Med Chem, 2007)", "target": "T1, Lanosterol synthase (Homo sapiens, UniProt P48449)", "T1 sequence (P48449 whole entry)": "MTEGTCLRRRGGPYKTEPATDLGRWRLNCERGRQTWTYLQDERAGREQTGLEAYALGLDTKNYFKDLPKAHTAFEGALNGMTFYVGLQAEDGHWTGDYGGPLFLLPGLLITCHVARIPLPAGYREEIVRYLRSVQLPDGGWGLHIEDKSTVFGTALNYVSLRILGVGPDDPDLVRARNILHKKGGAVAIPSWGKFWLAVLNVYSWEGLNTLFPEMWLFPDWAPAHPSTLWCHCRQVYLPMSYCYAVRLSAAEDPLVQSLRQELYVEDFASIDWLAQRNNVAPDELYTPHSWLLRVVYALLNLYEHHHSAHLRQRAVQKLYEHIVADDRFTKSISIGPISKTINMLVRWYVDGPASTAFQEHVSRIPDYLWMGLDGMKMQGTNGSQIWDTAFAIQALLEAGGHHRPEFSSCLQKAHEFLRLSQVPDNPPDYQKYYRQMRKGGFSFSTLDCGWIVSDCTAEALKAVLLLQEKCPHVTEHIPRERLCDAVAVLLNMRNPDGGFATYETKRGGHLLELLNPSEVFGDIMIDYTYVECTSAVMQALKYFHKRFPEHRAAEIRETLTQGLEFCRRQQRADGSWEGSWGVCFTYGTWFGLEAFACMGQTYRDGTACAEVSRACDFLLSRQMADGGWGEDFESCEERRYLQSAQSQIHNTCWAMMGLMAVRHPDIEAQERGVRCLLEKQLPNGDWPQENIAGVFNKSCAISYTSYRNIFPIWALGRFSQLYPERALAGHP", "assay": "Inhibition of oxidosqualene cyclase", "data": [{"smiles": "CN(C/C=C/COc1ccc(C(=O)c2ccc(Br)cc2)cn1)C1CC1", "values": [{"measurement": "IC50", "result": 19.1, "unit": "nM"}]}, {"smiles": "CN(CCCCCCOc1ccc(C(=O)c2ccc(Br)cc2)cc1)CC1CC1", "values": [{"measurement": "IC50", "result": 31.6, "unit": "nM"}]}, {"smiles": "C=CCN(C)CCCCCCOc1ccc2c(c1)S(=O)(=O)C=C2c1ccc(Br)cc1", "values": [{"measurement": "IC50", "result": 7.76, "unit": "nM"}]}, {"smiles": "C=CCN(C)CCCCCCOc1ccc2c(c1)c(C)nn2C", "values": [{"measurement": "IC50", "result": 240, "unit": "nM"}]}]}
